According to patent US4490393A, “Thiazolylurea derivatives, a process for preparing same and a pharmaceutical composition containing same” (Mitsui Toatsu Kagaki Kabushiki Kaisha, priority 1981, dated 1984):
Counter-ions that a name gives are not always drawn.

Each compound was assayed on delayed hypersensitivity induced by picryl chloride (assay: Reinforcement Test of Delayed Hypersensitivity (Test Example 1)). Details: ICR mice, oral 50 mg per Kg simultaneously with sensitization; 24 hours after challenging; average of both pinnae of eight mice; * P<0.05, ** P<0.01 vs control.
Type: in vivo, ICR male mice
Text: The delayed hypersensitivity induced on a mouse when picryl chloride(2-chloro-1,3,5-trinitrobenzene) is coated on the skin of the mouse is known as a typical cellular immunity.
This test system was used for the reinforcement tests of the delayed hypersensitivity.
Groups of eight ICR male mice, each having a body weight of about 30 g or so, were used for the test.
Sensitization was effected by coating a 3% solution of picryl chloride in a 4/1 mixture of olive oil and acetone on the shaved abdomen of each of the mice.
Simultaneously with the sensitization, a solution or suspension of a compound of the present invention dissolved or suspended in a 0.2% solution of carboxymethylcellulose in a physiological saline was orally administered to the mouse at a dose of 50 mg per Kg of its body weight. To each mouse of a control group, was similarly administered a 0.2% carboxymethylcellulose solution in a physiological saline.
The delayed hypersensitivity was induced 7 days after the sensitization by pinching each of the pinnae of each mouse with a pair of forceps whose tip portions were wrapped with a felt impregnated with a 1% solution of picryl chloride in olive oil and coating the pinnae with the solution. The thickness of each pinna was measured before the challenging and 24 hours after the challenging and the ratio of increase of the thickness (average value of both of the pinnae of the eight mice) is shown in Table 1.
For comparison, a similar test was carried out using Levamisole hydrochloride. The results thereof are also shown.
F.t tests were carried out on the thus-obtained test results.

Row | Structure (SMILES) | Ratio of Increase of Pinna Thickness
1 | O=C(Nc1ccccn1)Nc1nc(-c2ccccc2)cs1 [drawing 13] | 25.4%
2 | CSc1sc(NC(=O)Nc2nc(-c3ccccc3)c(SC)s2)nc1-c1ccccc1 [drawing 11] | 29.0%
3 | Cc1ccc(-c2csc(NC(=O)Nc3nc(-c4ccc(C)cc4)cs3)n2)cc1 [drawing 9] | 36.1%
4 | c1ccc([C@H]2CN3CCSC3=N2)cc1 [Levamisole.HCl, Levamisole hydrochloride, reference compound] | 31.2%
5 | COc1ccc(-c2csc(NC(=O)Nc3nc(-c4ccc(OC)cc4)cs3)n2)cc1 [drawing 10] | 31.7%
6 | Cc1cc(NC(=O)Nc2nc(-c3ccccc3)cs2)no1 [drawing 12] | 37.8%
7 | O=C(Nc1nc(-c2ccccc2)cs1)Nc1nc(-c2ccccc2)cs1 [drawing 8] | 37.5%

What follows are compounds tested on adjuvant arthritis caused by the injection of a Mycobacterium tuberculosis adjuvant (assay: Adjuvant Arthritis Test (Test Example 2)). Details: SD rats, subcutaneous 5 mg per Kg, 9 times; average value from 16th to 20th days; left hind leg; * P<0.05, ** P<0.01 vs control.
Type: in vivo, SD male rats
Text: The adjuvant arthritis in rats caused by the injection of a Mycobacterium tuberculosis adjuvant is often utilized for a model test of chronic rheumatoid arthritis in human.
The mechanism of manifestation of this disease has not completely been elucidated, but it is known that cellular immunity plays an important role. The immuno-modulating activity of the compounds of the present invention was investigated in accordance with this known adjuvant arthritis test.
8-Week-old SD male rats were used for the test. In 0.1 ml of fluid paraffin, 0.4 mg of dry dead cells of Mycobacterium tuberculosis were suspended, and the suspension was injected under the heel skin of the right hind leg of each rat. Each of the compounds of the present invention was subcutaneously administered 9 times in total before and after the injection of the adjuvant. Each of the compounds of the present invention was dissolved or suspended in a 0.2% solution of carboxymethylcellulose in physiological saline and administered to each rat at a dose of 5 mg per Kg of the body weight. The swollen volume of the left hind leg was measured during the period of from the day of injection to the day of completion of the test, and the swelling ratio was calculated. For comparison, a similar test was conducted using Levamisole hydrochloride. F.t tests were carried out on the test results obtained.

Row | Structure (SMILES) | Swell suppression ratio to control group
8 | COc1ccc(-c2csc(NC(=O)Nc3nc(-c4ccc(OC)cc4)cs3)n2)cc1 [drawing 16] | 37.5%
9 | c1ccc([C@H]2CN3CCSC3=N2)cc1 [Levamisole.HCl, Levamisole hydrochloride, reference compound] | 19.8%
10 | O=C(Nc1ccccn1)Nc1nc(-c2ccccc2)cs1 [drawing 19] | 34.6%
11 | Cc1ccc(-c2csc(NC(=O)Nc3nc(-c4ccc(C)cc4)cs3)n2)cc1 [drawing 15] | 29.3%
12 | O=C(Nc1nc(-c2ccccc2)cs1)Nc1nc(-c2ccccc2)cs1 [drawing 14] | 35.7%
13 | Cc1cc(NC(=O)Nc2nc(-c3ccccc3)cs2)no1 [drawing 18] | 26.6%
14 | CSc1sc(NC(=O)Nc2nc(-c3ccccc3)c(SC)s2)nc1-c1ccccc1 [drawing 17] | 28.8%

The compounds below were run on ddY male mice (assay: Acute Toxicity Test through Oral Administration (Test Example 3)). Details: observed for 7 days.
Type: in vivo
Text: To each of a group of five ddY male mice, was orally administered a medicine dissolved or suspended in physiological saline.

Row | Structure (SMILES) | estimated LD50
15 | c1ccc([C@H]2CN3CCSC3=N2)cc1 [Levamisole.HCl, Levamisole hydrochloride, reference compound] | 200 to 300 mg/kg
